According to patent US10144715B2, “Piperazine derivatives as liver X receptor modulators” (priority 2014, dated 2018):
Where two headings read alike, the source gives them in different places.

Columns and labels:
[1] = target: Gal4 DNA binding domain fused to the LBD of LXRβ in HEK293 cells (Homo sapiens (Human), UniProt P55055); assay: cell-based
LXR α LBD protein [2] = target: T1, LXR α LBD protein (Homo sapiens (Human), UniProt Q13133); assay: LXR α radioligand binding assay (SPA, competition with [3H]TO901317); conditions: read-out: LXRα Binding Ki
T1 sequence (Q13133 209-447): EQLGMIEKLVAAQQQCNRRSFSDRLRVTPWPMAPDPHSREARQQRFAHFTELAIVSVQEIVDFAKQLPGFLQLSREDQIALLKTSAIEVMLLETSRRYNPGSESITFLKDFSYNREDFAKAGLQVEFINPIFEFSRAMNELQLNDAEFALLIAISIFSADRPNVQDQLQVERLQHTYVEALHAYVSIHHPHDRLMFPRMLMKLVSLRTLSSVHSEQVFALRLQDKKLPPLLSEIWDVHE

LXR α LBD protein [3] = target: T1, LXR α LBD protein; assay: Human LXRα coactivator recruitment FRET assay, agonist mode; format: biochemical; conditions: agonist mode
Description: (§1) Two μL of the DMSO solutions were transferred to the plate and 38 μL of 10 nM LXRα-LBD or LXRβ-LBD (2×) were added immediately to the wells. The plate was shaken for 5 min at rt on an orbital micro shaker (DPC MicroMix® 5), after which 40 μL of 200 nM fluorescein-SRC2-3 peptide and 20 nM Terbium-anti-GST-antibody (Cat# PV3550, Life Technologies, Grand Island, N.Y.) solution (4×) were added to all. The plate was sealed and shaken for 2 min at rt, and incubated at rt for 2 h without agitation. […] The delay and window times were set at 100 and 200 microseconds, respectively. […] The percent control vs. compound concentration data were fit into a four-parameter model, and EC50 values were calculated from the fit as the concentrations corresponding to the inflection points on the concentration-response curves.

[4] = target: Gal4 DNA binding domain fused to the LBD of LXRα in HEK293 cells (Homo sapiens (Human), UniProt Q13133); assay: LXR luciferase transcriptional reporter gene assay, agonist mode, LXRα; format: cell-based; conditions: for EC50: read-out: Cell LXRα EC50
Sequence of Gal4 DNA binding domain fused to the LBD of LXRα in HEK293 cells (Q13133 209-447): as above

LXR β LBD protein [5] = target: T2, LXR β LBD protein (Homo sapiens (Human), UniProt P55055); assay: biochemical; format: binding; conditions: read-out: LXRβ Binding Ki
Target sequence in this assay (P55055 222-460 limits assumed): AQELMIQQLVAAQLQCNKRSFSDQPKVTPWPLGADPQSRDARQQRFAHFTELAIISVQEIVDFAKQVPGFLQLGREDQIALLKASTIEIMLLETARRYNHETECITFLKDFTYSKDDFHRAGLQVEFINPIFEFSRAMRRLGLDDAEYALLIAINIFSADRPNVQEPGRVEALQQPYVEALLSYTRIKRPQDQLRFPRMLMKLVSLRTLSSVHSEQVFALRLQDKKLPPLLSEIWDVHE

LXR β LBD protein [6] = target: T2, LXR β LBD protein; assay: biochemical; format: biochemical; conditions: agonist mode; for EC50: read-out: FRET LXRβ EC50
Description: as §1
Target sequence in this assay (P55055 222-460): as the sequence (P55055 222-460 limits assumed) above

Sequence of Gal4 DNA binding domain fused to the LBD of LXRβ in HEK293 cells (P55055 222-460 limits assumed): as above

| FRET LXRβ efficacy (LXR β LBD protein [6]) [%] | EC50 (LXR β LBD protein [6]) [nM] | SMILES | Cell LXRβ efficacy ([1]; agonist mode) | EC50 ([1]; agonist mode, read-out: Cell LXRβ EC50) [nM] | Ki (LXR α LBD protein [2]) [nM] | EC50 (LXR α LBD protein [3]) [nM] | FRET LXRα efficacy (LXR α LBD protein [3]) [%] | Cell LXRα efficacy [4] | EC50 [4] [nM] | Cell LXRβ efficacy [1] | EC50 [1] [nM] | Ki (LXR β LBD protein [5]) [nM] | EC50 ([4]; agonist mode) [nM] |
| --- | --- | --- | --- | --- | --- | --- | --- | --- | --- | --- | --- | --- | --- |
|  |  | CS(=O)(=O)c1cccc(N2CCN(C[C@H]3CC[C@@H](C(F)(F)F)CC3)[C@H](c3ccccc3)C2)c1 (single isomer, unassigned) [48-30] | 28% | 1630 | 2540 | 12900 | 55 | 4509 (17) % | 4510 |  |  |  |  |
|  |  | CC(C)[C@@H]1CN(c2ccc(F)c(S(C)(=O)=O)c2)CCN1c1nccc(C2CC2)n1 [7-10, (R)-4-cyclopropyl-2-(4-(4-fluoro-3-(methylsulfonyl)phenyl)-2-isopropylpiperazin-1-yl)pyrimidine] |  |  | 236 | 292 | 55 | 586 (42) % | 586 | 95 (23) % | 95 | 13 |  |
|  |  | CC(C)[C@@H]1CN(c2ccc(F)c(S(C)(=O)=O)c2)CCN1c1nc2ccc(C#N)cc2s1 [7-53, (R)-2-(4-(4-fluoro-3-(methylsulfonyl)phenyl)-2-isopropylpiperazin-1-yl)benzo[d]thiazole-6-carbonitrile] | 350 (26) % |  | 553 | > 50000 |  | 795 (40) % |  |  | 350 | 27 | 795 |
|  |  | CC(C)[C@@H]1CN(c2cccc(S(N)(=O)=O)c2)CCN1c1nccc(C(F)(F)F)n1 [7-60, (R)-3-(3-isopropyl-4-(4-(trifluoromethyl)pyrimidin-2-yl)piperazin-1-yl)benzenesulfonamide] | 59 (75) % |  | 873 | 84 | 97 | 248 (95) % |  |  | 59 | 146 | 248 |
| 50 | 7100 | CS(=O)(=O)c1cccc(N2CCN(Cc3ccc(C(F)(F)F)cn3)[C@H](c3ccccc3)C2)c1 [46-63, (R)-4-(3-(methylsulfonyl)phenyl)-2-phenyl-1-((5-(trifluoromethyl)pyridin-2-yl)methyl)piperazine] |  |  |  |  |  |  |  |  | > 20000 |  |  |
| 34 | 1860 | CS(=O)(=O)c1cccc(N2CCN(Cc3ccc(C(F)(F)F)cn3)[C@@H](c3ccccc3)C2)c1 [46-64, (S)-4-(3-(methylsulfonyl)phenyl)-2-phenyl-1-((5-(trifluoromethyl)pyridin-2-yl)methyl)piperazine] | 5804 (13) % |  |  |  |  |  |  |  | 5800 | > 2500 |  |
| 25 | 5770 | CS(=O)(=O)c1cccc(N2CCN(Cc3ccc(C(F)(F)F)o3)[C@H](c3ccccc3)C2)c1 [46-65, (R)-4-(3-(methylsulfonyl)phenyl)-2-phenyl-1-((5-(trifluoromethyl)furan-2-yl)methyl)piperazine] |  |  |  |  |  |  |  |  | > 20000 |  |  |
|  |  | CS(=O)(=O)c1cccc(N2CCN(CC3CCC(F)(F)CC3)[C@@H](c3ccccc3)C2)c1 [48-13, (S)-1-((4,4-difluorocyclohexyl)methyl)-4-(3-(methylsulfonyl)phenyl)-2-phenylpiperazine] |  |  | 867 | 632 | 23 | 2624 (20) % |  |  |  |  | 2620 |
|  |  | CC(C)[C@@H]1CN(c2cccc(S(C)(=O)=O)c2)CCN1c1ncc(C2CC2)cn1 [Cpd No 7-5, (R)-5-cyclopropyl-2-(2-isopropyl-4-(3-(methylsulfonyl)phenyl)piperazin-1-yl)pyrimidine] |  |  | 346 | 313 | 60 | 501 (64) % | 501 | 93 (32) % | 93 | 26 |  |
|  |  | CC1(C)CCC(CN2CCN(c3cccc(S(C)(=O)=O)c3)C[C@H]2c2ccccc2)CC1 [Cpd No 48-3, (R)-1-((4,4-dimethylcyclohexyl)methyl)-4-(3-(methylsulfonyl)phenyl)-2-phenylpiperazine] |  |  | 2340 | 5190 | 31 | 4273 (20) % | 4270 |  |  |  |  |
